Key:
Format in all cases: in vivo
Kochia (Kochia scoparia) [1] = assay: Test A preemergence; conditions: Bassia scoparia, pre-emergence, 240 h, Preemergence
Procedure, shortened: (§1)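 Visual injury scores from 0, no effect, to 100, complete control, were assigned versus untreated controls roughly 10 d after treatment in the greenhouse. Test chemicals, formulated with surfactant in a non-phytotoxic solvent, were applied to planted seeds as a preemergence soil spray or postemergence to one- to two-leaf plants 2 to 10 cm tall, in loam–sand soil.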

[2] = system: barnyardgrass (Echinochloa crus-galli); assay: Test A preemergence; conditions: Echinochloa crus-galli, pre-emergence, 240 h, Preemergence
Procedure, shortened: as §1

[3] = system: giant foxtail (Setaria faberii); assay: Test A preemergence; conditions: Setaria faberi, pre-emergence, 240 h, Preemergence
Procedure, shortened: as §1

[4] = system: pigweed (Amaranthus retroflexus); assay: Test A preemergence; conditions: Amaranthus retroflexus, pre-emergence, 240 h, Preemergence
[5] = system: ragweed (common ragweed, Ambrosia elatior); assay: Test A preemergence; conditions: Ambrosia artemisiifolia, pre-emergence, 240 h, Preemergence
Procedure, shortened: as §1

[6] = system: ryegrass, Italian (Italian ryegrass, Lolium multiflorum); assay: Test A preemergence; conditions: Lolium multiflorum, pre-emergence, 240 h, Preemergence
Procedure, shortened: as §1

[7] = system: Galium (catchweed bedstraw, Galium aparine); assay: Test A postemergence; conditions: Galium, post-emergence, 240 h, Postemergence, read-out: Plant response rating, Galium
Procedure, shortened: as §1

Kochia (Kochia scoparia) [8] = assay: Test A postemergence; conditions: Bassia scoparia, post-emergence, 240 h, Postemergence, read-out: Plant response rating, Kochia
Procedure, shortened: as §1

[9] = system: barnyardgrass (Echinochloa crus-galli); assay: Test A postemergence; conditions: Echinochloa crus-galli, post-emergence, 240 h, Postemergence, read-out: Plant response rating, Barnyardgrass
Procedure, shortened: as §1

[10] = system: blackgrass (Alopecurus myosuroides); assay: Test A postemergence; conditions: Alopecurus myosuroides, post-emergence, 240 h, Postemergence, read-out: Plant response rating, Blackgrass
Procedure, shortened: as §1

corn (Zea mays) = assay: Test A postemergence; conditions: Zea mays, post-emergence, 240 h, Postemergence
Procedure, shortened: as §1

[11] = system: giant foxtail (Setaria faberii); assay: Test A postemergence; conditions: Setaria faberi, post-emergence, 240 h, Postemergence, read-out: Plant response rating, Foxtail, Giant
Procedure, shortened: as §1

[12] = system: pigweed (Amaranthus retroflexus); assay: Test A postemergence; conditions: Amaranthus retroflexus, post-emergence, 240 h, Postemergence, read-out: Plant response rating, Pigweed
Procedure, shortened: as §1

[13] = system: ragweed (common ragweed, Ambrosia elatior); assay: Test A postemergence; conditions: Ambrosia artemisiifolia, post-emergence, 240 h, Postemergence, read-out: Plant response rating, Ragweed
Procedure, shortened: as §1

[14] = system: ryegrass, Italian (Italian ryegrass, Lolium multiflorum); assay: Test A postemergence; conditions: Lolium multiflorum, post-emergence, 240 h, Postemergence, read-out: Plant response rating, Ryegrass, Italian
Procedure, shortened: as §1

[15] = system: wheat (Triticum aestivum); assay: Test A postemergence; conditions: Triticum aestivum, post-emergence, 240 h, Postemergence, read-out: Plant response rating, Wheat
Procedure, shortened: as §1

[16] = system: barnyardgrass (Echinochloa crus-galli); assay: Test B flooded paddy test; conditions: Echinochloa crus-galli, 250 g ai/ha, Flood; 0 to 100 scale where 0 is no effect and 100 is complete control; read-out: Barnyardgrass plant response rating
Procedure, shortened: (§2)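 Compound goes directly into floodwater once pots are flooded 3 cm above soil, targeting plants at two leaves; the water depth is then held for the test duration. Plants sit 13–15 d in a greenhouse and are rated visually, 100 denoting complete control.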

[17] = system: ducksalad (Heteranthera limosa); assay: Test B flooded paddy test; conditions: Heteranthera limosa, 250 g ai/ha, Flood; 0 to 100 scale where 0 is no effect and 100 is complete control; read-out: Ducksalad plant response rating
Procedure, shortened: as §2

rice (Oryra sativa) = assay: Test B flooded paddy test; conditions: Oryza sativa, 250 g ai/ha, Flood; 0 to 100 scale where 0 is no effect and 100 is complete control; read-out: Rice plant response rating
Procedure, shortened: as §2

[18] = system: sedge, umbrella (small-flower umbrella sedge, Cyperus difformis); assay: Test B flooded paddy test; conditions: Cyperus difformis, 250 g ai/ha, Flood; 0 to 100 scale where 0 is no effect and 100 is complete control; read-out: Sedge, Umbrella plant response rating
Procedure, shortened: as §2

[19] = 125 g ai/ha, visual injury after approximately 10 d, 0 to 100 scale where 0 is no effect and 100 is complete control
[20] = 31 g ai/ha, visual injury after approx. 10 d, 0 to 100 scale, 0 no effect, 100 complete control

CC(C)=CC1CNC(=O)C1C(=O)Nc1cccc(F)c1F (stereo not drawn) [Compound 1012]
pest or weed control at 31 g/ha (Kochia (Kochia scoparia) [1]; 31 g ai/ha, 0 to 100 scale where 0 is no effect and 100 is complete control, read-out: Kochia plant response rating): 0% | pest or weed control at 125 g/ha (Kochia (Kochia scoparia) [1]; 125 g ai/ha, visual injury rating after approximately 10 d, read-out: Kochia plant response rating (0 to 100 scale, 0 is no effect, 100 is complete control)): 0% | pest or weed control at 125 g/ha ([2]; 125 g ai/ha, visual injury rating after approximately 10 d, read-out: Barnyardgrass plant response rating (0 to 100 scale, 0 is no effect, 100 is complete control)): 0% | pest or weed control at 31 g/ha ([2]; 31 g ai/ha, 0 to 100 scale (0 no effect, 100 complete control), read-out: Plant response rating, Barnyardgrass): 0% | pest or weed control at 125 g/ha ([3]; 125 g ai/ha, visual injury rating after approximately 10 d, read-out: Foxtail, Giant plant response rating (0 to 100 scale, 0 is no effect, 100 is complete control)): 0% | pest or weed control at 31 g/ha ([3]; 31 g ai/ha, 0 to 100 scale (0 no effect, 100 complete control), read-out: Plant response rating, Foxtail, Giant): 0% | pest or weed control at 31 g/ha ([4]; 31 g ai/ha, 0 to 100 scale where 0 is no effect and 100 is complete control, read-out: Pigweed plant response rating): 0% | pest or weed control at 125 g/ha ([4]; 125 g ai/ha, visual injury rating after approximately 10 d, read-out: Pigweed plant response rating (0 to 100 scale, 0 is no effect, 100 is complete control)): 0% | pest or weed control at 31 g/ha ([5]; 31 g ai/ha, 0 to 100 scale where 0 is no effect and 100 is complete control, read-out: Ragweed plant response rating): 0% | pest or weed control at 125 g/ha ([5]; 125 g ai/ha, visual injury rating after approximately 10 d, read-out: Ragweed plant response rating (0 to 100 scale, 0 is no effect, 100 is complete control)): 0% | pest or weed control at 31 g/ha ([6]; 31 g ai/ha, 0 to 100 scale where 0 is no effect and 100 is complete control, read-out: Ryegrass, Italian plant response rating): 0% | pest or weed control at 125 g/ha ([6]; 125 g ai/ha, visual injury rating after approximately 10 d, read-out: Ryegrass, Italian plant response rating (0 to 100 scale, 0 is no effect, 100 is complete control)): 0% | pest or weed control at 125 g/ha [7, 19]: 0% | pest or weed control at 31 g/ha [7, 20]: 0% | pest or weed control at 125 g/ha (Kochia (Kochia scoparia) [8]; [19]): 0% | pest or weed control at 31 g/ha (Kochia (Kochia scoparia) [8]; [20]): 0% | pest or weed control at 125 g/ha [9, 19]: 0% | pest or weed control at 31 g/ha [9, 20]: 0% | pest or weed control at 125 g/ha [10, 19]: 0% | pest or weed control at 31 g/ha [10, 20]: 0% | Corn plant response rating (crop injury, 0 = no effect, 100 = complete kill) at 125 g/ha (corn (Zea mays); [19]): 0% | Corn plant response rating (crop injury, 0 = no effect, 100 = complete kill) at 31 g/ha (corn (Zea mays); [20]): 0% | pest or weed control at 125 g/ha [11, 19]: 0% | pest or weed control at 31 g/ha [11, 20]: 0% | pest or weed control at 125 g/ha [12, 19]: 0% | pest or weed control at 31 g/ha [12, 20]: 0% | pest or weed control at 125 g/ha [13, 19]: 0% | pest or weed control at 31 g/ha [13, 20]: 0% | pest or weed control at 125 g/ha [14, 19]: 0% | pest or weed control at 31 g/ha [14, 20]: 0% | plant injury at 125 g/ha [15, 19]: 0% | plant injury at 31 g/ha [15, 20]: 0% | pest or weed control at 250 g/ha [16]: 0% | pest or weed control at 250 g/ha [17]: 0% | pest or weed control at 250 g/ha (rice (Oryra sativa)): 20% | pest or weed control at 250 g/ha [18]: 0%
